Where two headings read alike, the source gives them in different places.
Experiments:
[1] = Stability of aqueous solutions of TPPS2a and TPCS2a salts at 40° C. for 31 days, analyzed by HPLC; assay type: physicochemical
Description: Aqueous solutions of TPPS2a salts (approx. 1% weight) were kept at 40° C. for 31 days. The solutions were analyzed by HPLC(HP 1100). The HPLC conditions were as follows:
Column: Agilent Extend C-18
Mobile phase: 85% methanol, 15% water
Detector: UV detector, 415 nm
Aqueous solutions of TPCS2a salts (approx. 1% weight) were kept at 40° C. for 31 days.

[2] = Solubility in water of TPPS2a and TPCS2a salts (water added in 0.2 ml portions to approx. 50 mg)
From the text: (§1) The mixture was agitated until solid particles were broken up and dissolved.
as §1

[3] = TPPS2a salts, aqueous solution approx. 1% weight, 40° C., 31 days, HPLC UV 415 nm

## NCCO.NCCO.O=S(=O)(O)c1ccc(-c2c3nc(c(-c4ccc(S(=O)(=O)O)cc4)c4ccc([nH]4)c(-c4ccccc4)c4nc(c(-c5ccccc5)c5ccc2[nH]5)C=C4)C=C3)cc1 [Example 1, Meso-Tetraphenyl Porphyrin Disulphonate Bis(Monoethanolamine)]
[1]; [3]
  Degradation: No degradation

## CNCC(O)C(O)C(O)C(O)CO.CNCC(O)C(O)C(O)C(O)CO.O=S(=O)(O)c1ccc(-c2c3nc(c(-c4ccccc4)c4ccc([nH]4)c(-c4ccccc4)c4nc(c(-c5ccc(S(=O)(=O)O)cc5)c5ccc2[nH]5)C=C4)C=C3)cc1 [Example 2, Meso-Tetraphenyl Porphyrin Disulphonate Bis(Meglumate)]
[2]
  Minimum solubility in water: 89.7 mg/mL
[1]
  Degradation: No degradation

## O=S(=O)(O)c1ccc(-c2c3nc(c(-c4ccccc4)c4ccc([nH]4)c(-c4ccccc4)c4nc(c(-c5ccc(S(=O)(=O)O)cc5)c5ccc2[nH]5)C=C4)C=C3)cc1.OCCNCCO.OCCNCCO [Example 4, Meso-Tetraphenyl Porphyrin Disulphonate Bis(Diethanolamine)]
[1]
  Degradation: No degradation

## O=S(=O)(O)c1ccc(-c2c3nc(c(-c4ccc(S(=O)(=O)O)cc4)c4ccc([nH]4)c(-c4ccccc4)c4nc(c(-c5ccccc5)c5ccc2[nH]5)C=C4)C=C3)cc1.OCCN1CCCC1.OCCN1CCCC1 [Example 5, Meso-Tetraphenyl Porphyrin Disulphonate Bis(1-(2-Hydroxyethyl)Pyrrolidine)]
[1]
  Degradation: No degradation

## O=S(=O)(O)c1ccc(-c2c3nc(c(-c4ccc(S(=O)(=O)O)cc4)c4ccc([nH]4)c(-c4ccccc4)c4nc(c(-c5ccccc5)c5ccc2[nH]5)C=C4)C=C3)cc1.OCCN(CCO)CCO.OCCN(CCO)CCO [Example 6, Meso-Tetraphenyl Porphyrin Disulphonate Bis(Triethanolamine)]
[1]; [3]
  Degradation: No degradation

## Meso-Tetraphenyl Chlorin Disulphonate Bis(Meglumate) [Example 8]
[2]; TPCS2a salts, water added in 0.2 ml portions to approx. 50 mg until dissolved
  Minimum solubility in water: 38.9 mg/mL
[1]; TPCS2a salts, aqueous solution approx. 1% weight, 40° C., 31 days, HPLC
  Degradation: No degradation

## Meso-Tetraphenyl Chlorin Disulphonate Bis(Monoethanolamine) [Example 7]
[1]
  Degradation: No degradation
